Data: the Kinase Knowledgebase extract (Sharma et al. 2016)
pIC50: −log10 of the molar value. Several values for one entry are separate records, joined by “and”; a condition that tells them apart may be missing. Equal entries are not always repeated.

Assays:
MAPK14 (rat) [1] = test system: MAPK14 (rat)
MAPK14 (rat) [2] = assay: Secondary Paw Swelling Inhibition (Arthritis Rat)
MAPK14 (human) = MAPK14 (human) (UniProt Q16539); assay: LPS-induced TNF-alpha Release Inhibition (Human Blood)
MAPK14 = MAPK14 (UniProt Q16539); assay: p38-alpha Kinase Inhibition
Chain of MAPK14 (Q16539 whole entry, looked up): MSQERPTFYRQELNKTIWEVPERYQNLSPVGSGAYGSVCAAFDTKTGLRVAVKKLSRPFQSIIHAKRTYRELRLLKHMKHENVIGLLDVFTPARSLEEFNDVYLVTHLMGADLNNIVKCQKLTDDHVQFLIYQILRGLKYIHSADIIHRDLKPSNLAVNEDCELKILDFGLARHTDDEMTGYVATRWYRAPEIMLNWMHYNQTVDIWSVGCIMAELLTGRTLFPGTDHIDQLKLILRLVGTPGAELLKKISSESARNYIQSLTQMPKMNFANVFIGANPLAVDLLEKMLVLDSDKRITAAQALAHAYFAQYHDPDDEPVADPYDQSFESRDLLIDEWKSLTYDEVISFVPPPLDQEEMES

Chain of MAPK14 (human) (Q16539 whole entry, looked up): as above

SMILES | pIC50 (MAPK14 (human)) | further results
C[C@H](Nc1cc(-c2c(-c3cccc(C(F)(F)F)c3)nc(C3CCNCC3)n2C)ccn1)c1ccccc1 | – | ID50 (MAPK14 (rat) [1]): 17.5 mg/kg/day; ED50 (MAPK14 (rat) [2]): 8.2 mg/kg/day; inhibition (MAPK14 (rat) [2]; dose or concentration not given here): 76%
Fc1ccc(-c2nc[nH]c2-c2ccncc2)cc1 | < 5.00 | –
Fc1ccc(-c2nc(C3CCCCC3)[nH]c2-c2ccncc2)cc1 | 7.47 | –
COc1ccc2c(c1)c(CC(=O)O)c(C)n2C(=O)c1ccc(Cl)cc1 | – | score (MAPK14 (rat) [2]): 5.5 and 4.9
COc1ccc(CNc2nccc(-c3[nH]c(C4CCNCC4)nc3-c3cccc(C(F)(F)F)c3)n2)cc1 | 6.54 | –
C[C@H](Nc1nccc(-c2nc(C3CCNCC3)n(C)c2-c2cccc(C(F)(F)F)c2)n1)c1ccccc1 | 4.62 | –
C[C@@H](Nc1nccc(-c2[nH]c(-c3ccccc3)nc2-c2cccc(C(F)(F)F)c2)n1)c1ccccc1 | 9.40 | pIC50 (MAPK14): 9.01
C[C@H](Nc1nccc(-c2[nH]c(-c3ccccc3)nc2-c2cccc(C(F)(F)F)c2)n1)c1ccccc1 | 8.22 | pIC50 (MAPK14): 9.12
Nc1nccc(-c2[nH]c(-c3ccccc3)nc2-c2ccccc2)n1 | < 4.00 | –
CNc1nccc(-c2[nH]c(-c3ccccc3)nc2-c2ccccc2)n1 | < 4.00 | –
FC(F)(F)c1cccc(-c2nc(-c3ccccc3)[nH]c2-c2ccncc2)c1 | < 4.00 | –
Fc1ccc(-c2nc(C3CCNCC3)[nH]c2-c2ccncc2)cc1 | 6.76 | –
COc1ccc(CNc2nccc(-c3[nH]c(-c4ccccc4)nc3-c3ccccc3)n2)cc1 | < 4.00 | –
Nc1nccc(-c2[nH]c(C3CCNCC3)nc2-c2cccc(C(F)(F)F)c2)n1 | 6.72 | –
c1ccc(-c2nc(-c3ccccc3)c(-c3ccncn3)[nH]2)cc1 | < 4.00 | –
Fc1ccc(-c2nc(C3CCCNC3)[nH]c2-c2ccncc2)cc1 (stereo not given) | 6.23 | –
